Data as given in patent publication US20070128217A1 (priority 2003, published 2007).

Tests used:
[1] = test system: control sera (pooled serum of ten healthy LUMC hospital workers; commercial negative donor pooled serum from the Dutch bloodbank); assay type: binding, human; parameters: Binding of Control serum LUMC to linear peptides / Binding of Control serum Blood-bank to linear peptides / Binding of Control serum LUMC to looped peptides / Binding of Control Serum Blood-Bank to Looped peptides / Binding of Control serum LUMC to linear peptides of the protein M of SARS-CoV Urbani / Binding of Control serum Blood-bank to linear peptides of the protein M of SARS-CoV Urbani / Binding of Control serum LUMC to looped peptides of the protein M of SARS-CoV Urbani / Binding of Control Serum Blood-Bank to Looped peptides of the protein M of SARS-CoV Urbani: unit not given here
[2] = test system: rabbit serum obtained by immunizing a rabbit with the SARS-CoV strain Frankfurt 1; assay type: binding; parameters: Binding of a rabbit serum to linear peptides / Binding of a rabbit serum to looped peptides / Rabbit serum linear peptides / Rabbit serum looped peptides / Binding of a rabbit serum to linear peptides of protein N of SARS-CoV Urbani (Rabbit serum linear peptides) / Binding of a rabbit serum to looped/cyclic peptides of protein N of SARS-CoV Urbani (Rabbit serum looped peptides): unit not given here
[3] = test system: antibodies in sera from SARS patients (sera 1a, 1b, 2, 6, 37, 62, London, SARS-yellow, SARS-green); assay type: binding, human; parameters: Binding of serum 6 to linear peptides of protein X1 of SARS-CoV Urbani / Binding of serum 37 to linear peptides of protein X1 of SARS-CoV Urbani / Binding of serum 6 to looped/cyclic peptide (PEPSCAN-ELISA) / Binding of serum 37 to looped/cyclic peptide (PEPSCAN-ELISA) / Binding of serum 37 to looped/cyclic peptides of protein X1 of SARS-CoV Urbani / Binding of serum 6 to linear peptides of protein X2 / Binding of serum 37 to linear peptides of protein X2 / Binding of serum 37 to looped/cyclic peptides of protein X2 of SARS-CoV Urbani / Binding of serum 6 to linear peptides of protein M of SARS-CoV Urbani / Binding of serum 37 to linear peptides of protein M of SARS-CoV Urbani / Binding of serum 6 to looped/cyclic peptides of protein M of SARS-CoV Urbani / Binding of serum 37 to looped/cyclic peptides of protein M of SARS-CoV Urbani / Binding of serum 6 to linear peptides of protein X3 of SARS-CoV Urbani / Binding of serum 37 to linear peptides of protein X3 of SARS-CoV Urbani / Binding of serum 37 to looped/cyclic peptides of protein X3 of SARS-CoV Urbani / Binding of serum 6 to linear peptides of protein X4 of SARS-CoV Urbani / Binding of serum 37 to linear peptides of protein X4 of SARS-CoV Urbani / Binding of serum 37 to looped/cyclic peptides of protein X4 of SARS-CoV Urbani / Binding of serum 6 to linear peptides of protein X5 of SARS-CoV Urbani / Binding of serum 37 to linear peptides of protein X5 of SARS-CoV Urbani / Binding of serum 37 to looped/cyclic peptides of protein X5 of SARS-CoV Urbani / Binding of serum 6 to linear peptides of protein N of SARS-CoV Urbani / Binding of serum 37 to linear peptides of protein N of SARS-CoV Urbani / Binding of serum 6 to linear peptide (PEPSCAN-ELISA) / Binding of serum 1a to looped/cyclic peptides of protein N of SARS-CoV Urbani / Binding of serum 1b to looped/cyclic peptides of protein N of SARS-CoV Urbani / Binding of serum 2 to looped/cyclic peptides of protein N of SARS-CoV Urbani / Binding of serum 6 to looped/cyclic peptides of protein N of SARS-CoV Urbani / Binding of serum 37 to looped/cyclic peptides of protein N of SARS-CoV Urbani / Binding of serum 62 to looped/cyclic peptides of protein N of SARS-CoV Urbani / Binding of serum London to looped/cyclic peptides of protein N of SARS-CoV Urbani / Binding of serum SARS-green to looped/cyclic peptides of protein N of SARS-CoV Urbani: unit not given here

VRYNTRGNTYSTAWL
Binding of Control Serum Blood-Bank to Looped peptides [1]: 0.3
Binding of Control serum Blood-bank to linear peptides [1]: 0.9
Binding of Control serum LUMC to linear peptides [1]: 0.5
Binding of Control serum LUMC to looped peptides [1]: 0.5
Rabbit serum linear peptides [2]: 0.7
Rabbit serum looped peptides [2]: 1.2
Binding of serum 1a to linear peptides of protein X5 of SARS-CoV Urbani [3]: 0.7
Binding of serum 1a to looped/cyclic peptides of protein X5 of SARS-CoV Urbani [3]: 0.5
Binding of serum 1b to linear peptides of protein X5 of SARS-CoV Urbani [3]: 0.4
Binding of serum 1b to looped/cyclic peptides of protein X5 of SARS-CoV Urbani [3]: 0.3
Binding of serum 2 to linear peptides of protein X5 of SARS-CoV Urbani [3]: 0.4
Binding of serum 2 to looped/cyclic peptides of protein X5 of SARS-CoV Urbani [3]: 0.4
Binding of serum 6 to linear peptides of protein X5 of SARS-CoV Urbani [3]: 0.7
Binding of serum 6 to looped/cyclic peptides of protein X5 of SARS-CoV Urbani [3]: 0.3
Binding of serum 37 to linear peptides of protein X5 of SARS-CoV Urbani [3]: 0.6
Binding of serum 37 to looped/cyclic peptides of protein X5 of SARS-CoV Urbani [3]: 0.6
Binding of serum 62 to linear peptides of protein X5 of SARS-CoV Urbani [3]: 0.7
Binding of serum 62 to looped/cyclic peptides of protein X5 of SARS-CoV Urbani [3]: 0.4
Binding of serum London to linear peptides of protein X5 of SARS-CoV Urbani [3]: 0.7
Binding of serum London to looped/cyclic peptides of protein X5 of SARS-CoV Urbani [3]: 0.2
Binding of serum SARS-green to linear peptides of protein X5 of SARS-CoV Urbani [3]: 0.4
Binding of serum SARS-green to looped/cyclic peptides of protein X5 of SARS-CoV Urbani [3]: 0.6
Binding of serum SARS-yellow to linear peptides of protein X5 of SARS-CoV Urbani [3]: 0.4
Binding of serum SARS-yellow to looped/cyclic peptides of protein X5 of SARS-CoV Urbani [3]: 0.6

QIHTIDGSSGVANPA
Binding of Control Serum Blood-Bank to Looped peptides [1]: 0.2
Binding of Control serum Blood-bank to linear peptides [1]: 0.6
Binding of Control serum LUMC to linear peptides [1]: 0.6
Binding of Control serum LUMC to looped peptides [1]: 0.4
Binding of a rabbit serum to linear peptides [2]: 0.1
Binding of a rabbit serum to looped peptides [2]: 0.3
Binding of serum 1a to linear peptides of protein X1 of SARS-CoV Urbani [3]: 0.6
Binding of serum 1a to looped/cyclic peptides of protein X1 of SARS-CoV Urbani [3]: 0.4
Binding of serum 1b to linear peptides of protein X1 of SARS-CoV Urbani [3]: 0.5
Binding of serum 1b to looped/cyclic peptides of protein X1 of SARS-CoV Urbani [3]: 0.3
Binding of serum 2 to linear peptides of protein X1 of SARS-CoV Urbani [3]: 0.6
Binding of serum 2 to looped/cyclic peptides of protein X1 of SARS-CoV Urbani [3]: 0.4
Binding of serum 6 to linear peptides of protein X1 of SARS-CoV Urbani [3]: 0.5
Binding of serum 6 to looped/cyclic peptides of protein X1 of SARS-CoV Urbani [3]: 0.2
Binding of serum 37 to linear peptides of protein X1 of SARS-CoV Urbani [3]: 0.7
Binding of serum 37 to looped/cyclic peptides of protein X1 of SARS-CoV Urbani [3]: 0.4
Binding of serum 62 to linear peptides of protein X1 of SARS-CoV Urbani [3]: 0.6
Binding of serum 62 to looped/cyclic peptides of protein X1 of SARS-CoV Urbani [3]: 0.3
Binding of serum London to linear peptides of protein X1 of SARS-CoV Urbani [3]: 0.3
Binding of serum London to looped/cyclic peptides of protein X1 of SARS-CoV Urbani [3]: 0.2
Binding of serum SARS-green to linear peptides of protein X1 of SARS-CoV Urbani [3]: 0.4
Binding of serum SARS-green to looped/cyclic peptides of protein X1 of SARS-CoV Urbani [3]: 0.2
Binding of serum SARS-yellow to linear peptides of protein X1 of SARS-CoV Urbani [3]: 0.3
Binding of serum SARS-yellow to looped/cyclic peptides of protein X1 of SARS-CoV Urbani [3]: 0.1

IVFTSCELYHYQECV
Binding of Control Serum Blood-Bank to Looped peptides [1]: 0.8
Binding of Control serum Blood-bank to linear peptides [1]: 0.8
Binding of Control serum LUMC to linear peptides [1]: 0.8
Binding of Control serum LUMC to looped peptides [1]: 0.9
Rabbit serum linear peptides [2]: 0.4
Rabbit serum looped peptides [2]: 0.4
Binding of serum 1a to linear peptides of protein X4 of SARS-CoV Urbani [3]: 0.8
Binding of serum 1a to looped/cyclic peptides of protein X4 of SARS-CoV Urbani [3]: 0.9
Binding of serum 1b to linear peptides of protein X4 of SARS-CoV Urbani [3]: 0.9
Binding of serum 1b to looped/cyclic peptides of protein X4 of SARS-CoV Urbani [3]: 0.8
Binding of serum 2 to linear peptides of protein X4 of SARS-CoV Urbani [3]: 0.6
Binding of serum 2 to looped/cyclic peptides of protein X4 of SARS-CoV Urbani [3]: 0.8
Binding of serum 6 to linear peptides of protein X4 of SARS-CoV Urbani [3]: 0.8
Binding of serum 6 to looped/cyclic peptides of protein X4 of SARS-CoV Urbani [3]: 0.6
Binding of serum 37 to linear peptides of protein X4 of SARS-CoV Urbani [3]: 1.0
Binding of serum 37 to looped/cyclic peptides of protein X4 of SARS-CoV Urbani [3]: 1.0
Binding of serum 62 to linear peptides of protein X4 of SARS-CoV Urbani [3]: 1.0
Binding of serum 62 to looped/cyclic peptides of protein X4 of SARS-CoV Urbani [3]: 0.8
Binding of serum London to linear peptides of protein X4 of SARS-CoV Urbani [3]: 0.8
Binding of serum London to looped/cyclic peptides of protein X4 of SARS-CoV Urbani [3]: 0.3
Binding of serum SARS-green to linear peptides of protein X4 of SARS-CoV Urbani [3]: 0.9
Binding of serum SARS-green to looped/cyclic peptides of protein X4 of SARS-CoV Urbani [3]: 0.8
Binding of serum SARS-yellow to linear peptides of protein X4 of SARS-CoV Urbani [3]: 0.4
Binding of serum SARS-yellow to looped/cyclic peptides of protein X4 of SARS-CoV Urbani [3]: 0.6

GGALIARCWYLHEGH
Binding of Control Serum Blood-Bank to Looped peptides [1]: 0.6
Binding of Control serum Blood-bank to linear peptides [1]: 0.5
Binding of Control serum LUMC to linear peptides [1]: 0.4
Binding of Control serum LUMC to looped peptides [1]: 0.6
Rabbit serum linear peptides [2]: 0.5
Rabbit serum looped peptides [2]: 0.5
Binding of serum 1a to linear peptides of protein X5 of SARS-CoV Urbani [3]: 0.8
Binding of serum 1a to looped/cyclic peptides of protein X5 of SARS-CoV Urbani [3]: 0.7
Binding of serum 1b to linear peptides of protein X5 of SARS-CoV Urbani [3]: 0.7
Binding of serum 1b to looped/cyclic peptides of protein X5 of SARS-CoV Urbani [3]: 0.6
Binding of serum 2 to linear peptides of protein X5 of SARS-CoV Urbani [3]: 0.6
Binding of serum 2 to looped/cyclic peptides of protein X5 of SARS-CoV Urbani [3]: 0.6
Binding of serum 6 to linear peptides of protein X5 of SARS-CoV Urbani [3]: 0.8
Binding of serum 6 to looped/cyclic peptides of protein X5 of SARS-CoV Urbani [3]: 0.4
Binding of serum 37 to linear peptides of protein X5 of SARS-CoV Urbani [3]: 0.7
Binding of serum 37 to looped/cyclic peptides of protein X5 of SARS-CoV Urbani [3]: 0.7
Binding of serum 62 to linear peptides of protein X5 of SARS-CoV Urbani [3]: 0.8
Binding of serum 62 to looped/cyclic peptides of protein X5 of SARS-CoV Urbani [3]: 0.7
Binding of serum London to linear peptides of protein X5 of SARS-CoV Urbani [3]: 0.7
Binding of serum London to looped/cyclic peptides of protein X5 of SARS-CoV Urbani [3]: 0.3
Binding of serum SARS-green to linear peptides of protein X5 of SARS-CoV Urbani [3]: 0.7
Binding of serum SARS-green to looped/cyclic peptides of protein X5 of SARS-CoV Urbani [3]: 0.7
Binding of serum SARS-yellow to linear peptides of protein X5 of SARS-CoV Urbani [3]: 0.3
Binding of serum SARS-yellow to looped/cyclic peptides of protein X5 of SARS-CoV Urbani [3]: 0.3

KFTTSLSLHKLLQTL
Binding of Control Serum Blood-Bank to Looped peptides [1]: 0.5
Binding of Control serum Blood-bank to linear peptides [1]: 0.6
Binding of Control serum LUMC to linear peptides [1]: 0.4
Binding of Control serum LUMC to looped peptides [1]: 0.5
Binding of a rabbit serum to linear peptides [2]: 0.2
Binding of a rabbit serum to looped peptides [2]: 0.4
Binding of serum 1a to linear peptides of protein X2 [3]: 0.5
Binding of serum 1a to looped/cyclic peptides of protein X2 of SARS-CoV Urbani [3]: 0.5
Binding of serum 1b to linear peptides of protein X2 [3]: 0.4
Binding of serum 1b to looped/cyclic peptides of protein X2 of SARS-CoV Urbani [3]: 0.4
Binding of serum 2 to linear peptides of protein X2 [3]: 0.4
Binding of serum 2 to looped/cyclic peptides of protein X2 of SARS-CoV Urbani [3]: 0.5
Binding of serum 6 to linear peptides of protein X2 [3]: 0.6
Binding of serum 6 to looped/cyclic peptides of protein X2 of SARS-CoV Urbani [3]: 0.4
Binding of serum 37 to linear peptides of protein X2 [3]: 0.5
Binding of serum 37 to looped/cyclic peptides of protein X2 of SARS-CoV Urbani [3]: 0.5
Binding of serum 62 to linear peptides of protein X2 [3]: 0.6
Binding of serum 62 to looped/cyclic peptides of protein X2 of SARS-CoV Urbani [3]: 0.5
Binding of serum London to linear peptides of protein X2 [3]: 0.5
Binding of serum London to looped/cyclic peptides of protein X2 of SARS-CoV Urbani [3]: 0.6
Binding of serum SARS-green to linear peptides of protein X2 [3]: 0.4
Binding of serum SARS-green to looped/cyclic peptides of protein X2 of SARS-CoV Urbani [3]: 0.4
Binding of serum SARS-yellow to linear peptides of protein X2 [3]: 0.5
Binding of serum SARS-yellow to looped/cyclic peptides of protein X2 of SARS-CoV Urbani [3]: 0.3
